We go through six compounds from patent EP4786451A1, “COMPOUND TARGETING INTEGRIN AND USE THEREOF IN RNAI AGENT” (YUN HO BIO CO., LTD, priority 2023, dated 2025).

As usually defined, the IC50 is the concentration that inhibits the measured activity by half.

For one assay, the target named is Integrin αvβ1 Receptor (Homo sapiens, UniProt P05556+P06756). Nature of the assay: Fluorescence polarization (FP) binding activity to integrin αvβ1 receptor (competition with Cyclo[-RGDy-K(5-FAM)]). As to conditions: Table 4, different integrin receptors. Background: In fluorescence polarisation assays a small probe gives low polarisation when free and higher when bound to something large.
Integrin αvβ1 Receptor, sequence (P06756 31-992 limits assumed): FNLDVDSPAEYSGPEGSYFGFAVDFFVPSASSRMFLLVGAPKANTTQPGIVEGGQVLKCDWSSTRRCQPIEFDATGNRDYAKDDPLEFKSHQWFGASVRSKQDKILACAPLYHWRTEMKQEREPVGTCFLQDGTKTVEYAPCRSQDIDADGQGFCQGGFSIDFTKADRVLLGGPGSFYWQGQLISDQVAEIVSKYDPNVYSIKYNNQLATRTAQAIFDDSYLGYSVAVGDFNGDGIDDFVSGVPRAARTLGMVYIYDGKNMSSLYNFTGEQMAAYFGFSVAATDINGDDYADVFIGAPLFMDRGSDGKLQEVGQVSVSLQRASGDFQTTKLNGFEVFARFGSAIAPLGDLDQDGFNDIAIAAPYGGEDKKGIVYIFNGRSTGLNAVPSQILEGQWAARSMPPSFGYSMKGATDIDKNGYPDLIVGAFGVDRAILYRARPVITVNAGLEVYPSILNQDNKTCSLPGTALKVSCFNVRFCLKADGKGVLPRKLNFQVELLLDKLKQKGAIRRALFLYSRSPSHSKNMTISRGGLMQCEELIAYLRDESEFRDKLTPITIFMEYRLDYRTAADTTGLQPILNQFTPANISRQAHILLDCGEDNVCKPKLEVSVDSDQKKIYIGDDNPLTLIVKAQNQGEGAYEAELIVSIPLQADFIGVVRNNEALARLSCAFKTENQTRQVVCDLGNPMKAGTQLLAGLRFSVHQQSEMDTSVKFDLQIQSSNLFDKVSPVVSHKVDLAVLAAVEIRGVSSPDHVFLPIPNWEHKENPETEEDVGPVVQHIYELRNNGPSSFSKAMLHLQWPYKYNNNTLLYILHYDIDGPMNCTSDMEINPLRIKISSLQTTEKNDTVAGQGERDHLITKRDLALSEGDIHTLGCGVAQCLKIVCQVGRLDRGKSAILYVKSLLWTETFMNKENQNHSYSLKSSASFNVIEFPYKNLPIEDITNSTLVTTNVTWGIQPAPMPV
Integrin αvβ1 Receptor, sequence (P05556 21-728 limits assumed): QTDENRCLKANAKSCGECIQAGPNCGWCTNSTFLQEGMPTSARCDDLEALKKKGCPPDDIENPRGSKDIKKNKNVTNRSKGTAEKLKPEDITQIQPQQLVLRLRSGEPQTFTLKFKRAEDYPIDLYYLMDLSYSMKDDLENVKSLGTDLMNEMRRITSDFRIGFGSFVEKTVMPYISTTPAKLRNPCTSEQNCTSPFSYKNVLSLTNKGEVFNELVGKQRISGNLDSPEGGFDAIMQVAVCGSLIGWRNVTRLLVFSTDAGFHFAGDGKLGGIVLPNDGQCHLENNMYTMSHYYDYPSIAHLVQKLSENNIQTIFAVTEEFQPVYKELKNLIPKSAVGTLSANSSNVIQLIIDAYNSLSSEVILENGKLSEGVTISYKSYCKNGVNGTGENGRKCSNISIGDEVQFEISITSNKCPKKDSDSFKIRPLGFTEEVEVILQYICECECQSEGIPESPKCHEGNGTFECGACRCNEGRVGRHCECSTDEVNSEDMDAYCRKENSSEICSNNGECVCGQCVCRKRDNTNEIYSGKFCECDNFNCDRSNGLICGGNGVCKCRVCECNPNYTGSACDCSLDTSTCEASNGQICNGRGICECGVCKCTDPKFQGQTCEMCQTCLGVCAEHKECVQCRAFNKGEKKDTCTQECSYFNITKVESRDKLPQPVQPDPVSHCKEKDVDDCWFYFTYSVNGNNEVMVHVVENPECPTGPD

Another assay has as its target Integrin αvβ6 Receptor (Homo sapiens, UniProt P06756+P18564). Nature of the assay: HTRF binding activity to integrin αvβ6 receptor (competition with LAP (TGF-beta 1)). As to conditions: for specific binding ability to the αvβ6 receptor: αvβ6 compared with αvβ1 and αvβ5. The protocol: Main Experimental Reagents and Consumables
Inhibition rate and fit IC50 was calculated using Excel and XL-Fit respectively, formula as follows: Inhibition % = (Max−Signal)/(Max−Min)*100 [formula] Y = Bottom + (Top−Bottom)/(1+(IC50/X)[…]), [formula] Y and X represent %inhibition and compound concentration respectively
A general note: Time-resolved FRET reads energy transfer from a long-lived donor to a nearby acceptor.

The next assay has as its target Integrin αvβ5 Receptor (Homo sapiens, UniProt P06756+P18084). The assay is described as follows: HTRF binding activity to integrin αvβ5 receptor (competition with Vitronectin).
Where [1] appears, read: Integrin αvβ6, HTRF, Table 3, several runs, each with Cilengitide and 1 as references, read-out: IC50.
Where [2] appears, read: Table 4, different integrin receptors, read-out: IC50 (nM) αvβ6.
[3] abbreviates: IC50 (nM) αvβ5, Table 4, different integrin receptors.

Where “and” joins values, the source holds several entries; their conditions need not be identical. Identical values can stand only once. Like-named read-outs stand apart in the source and are kept apart here.

Integrin αvβ5 Receptor, sequence (P06756 31-992 limits assumed): as the sequence (P06756 31-992 limits assumed) above
Integrin αvβ5 Receptor, sequence (P18084 24-719 limits assumed): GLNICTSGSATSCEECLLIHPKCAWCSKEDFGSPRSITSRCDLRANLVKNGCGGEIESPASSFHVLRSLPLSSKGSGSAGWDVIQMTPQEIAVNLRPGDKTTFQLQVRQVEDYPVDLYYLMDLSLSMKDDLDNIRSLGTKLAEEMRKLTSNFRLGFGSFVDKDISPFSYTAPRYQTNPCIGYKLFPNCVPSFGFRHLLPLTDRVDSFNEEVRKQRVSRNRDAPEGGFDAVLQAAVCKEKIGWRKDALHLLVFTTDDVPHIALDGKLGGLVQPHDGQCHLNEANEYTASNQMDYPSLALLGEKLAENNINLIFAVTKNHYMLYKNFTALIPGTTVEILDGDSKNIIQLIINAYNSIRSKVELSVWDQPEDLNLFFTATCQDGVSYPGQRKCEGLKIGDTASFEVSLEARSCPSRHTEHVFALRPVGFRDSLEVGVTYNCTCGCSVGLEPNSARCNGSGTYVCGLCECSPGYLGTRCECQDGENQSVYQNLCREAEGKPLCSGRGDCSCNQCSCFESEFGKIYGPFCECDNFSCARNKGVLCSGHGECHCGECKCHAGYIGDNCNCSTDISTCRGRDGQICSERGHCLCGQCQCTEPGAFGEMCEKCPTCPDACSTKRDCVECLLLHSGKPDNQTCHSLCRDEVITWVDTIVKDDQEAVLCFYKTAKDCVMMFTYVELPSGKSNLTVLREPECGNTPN
Integrin αvβ6 Receptor, sequence (P06756 31-992 limits assumed): as the sequence (P06756 31-992 limits assumed) above
Integrin αvβ6 Receptor, sequence (P18564 22-707 limits assumed): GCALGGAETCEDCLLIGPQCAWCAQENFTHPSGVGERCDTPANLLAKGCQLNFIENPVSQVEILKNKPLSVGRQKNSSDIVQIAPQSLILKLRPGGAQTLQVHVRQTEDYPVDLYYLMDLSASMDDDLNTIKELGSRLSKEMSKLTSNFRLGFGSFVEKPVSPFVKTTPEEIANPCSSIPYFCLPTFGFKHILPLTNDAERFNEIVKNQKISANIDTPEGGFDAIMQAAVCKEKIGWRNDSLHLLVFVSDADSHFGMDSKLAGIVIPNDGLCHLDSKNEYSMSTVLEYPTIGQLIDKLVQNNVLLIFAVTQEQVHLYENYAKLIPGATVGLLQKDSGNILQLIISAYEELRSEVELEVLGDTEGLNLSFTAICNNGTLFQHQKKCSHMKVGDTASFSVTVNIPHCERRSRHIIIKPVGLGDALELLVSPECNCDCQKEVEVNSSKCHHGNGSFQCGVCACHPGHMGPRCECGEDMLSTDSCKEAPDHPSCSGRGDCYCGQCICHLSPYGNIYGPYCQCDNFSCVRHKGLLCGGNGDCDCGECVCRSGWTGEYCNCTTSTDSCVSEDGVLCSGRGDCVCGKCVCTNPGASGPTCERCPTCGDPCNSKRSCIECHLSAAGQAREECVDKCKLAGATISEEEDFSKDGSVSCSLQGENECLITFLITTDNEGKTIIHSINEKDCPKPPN
Protocol for Integrin αvβ5 Receptor: B. Evaluation of Compound Binding Activity to Integrin αvβ5 Receptor using Homogeneous Time-Resolved Fluorescence (HTRF) Technology
Compound Preparation: Same as A.
Reagent Preparation: Assay buffer was prepared.
Then 5 µL of integrin receptor protein αvβ5 was added (5 µL of assay buffer was added for negative control), incubated at room temperature for 20 minutes. Next, 5 µL of ligand protein VTN, and 10 µL of the SA-Tb and Anti-His XL665 mixture were added respectively, incubated at room temperature for 1 hour.

Regarding `[N-]=[N+]=NCCOCCOCCOCCOCCOc1cccc([C@H](CC(=O)O)CN2CC[C@@H](CCc3ccc4c(n3)NCCC4)C2)c1` (single isomer, unassigned) [Compound 18-P1], the IC50 was found to be 9.1 nM on Integrin αvβ1 Receptor, 3.2 nM on Integrin αvβ6 Receptor (setting [1]), 3.2 nM on Integrin αvβ6 Receptor (setting [2]) and 0.6 nM at Integrin αvβ5 Receptor (setting [3]).
With `Cc1ccnc(NCCCC(=O)NCC(=O)N[C@@H](CC(=O)O)c2ccc(-c3ccc(OCCOCCOCCOCCOCCN=[N+]=[N-])c4ccccc34)cc2)c1` [Compound 1, reference compound], the half-maximal inhibitory concentration (IC50) at Integrin αvβ1 Receptor is 9.7 nM; on Integrin αvβ6 Receptor (setting [1]), 2.5 nM and 2.3 nM; at Integrin αvβ6 Receptor (setting [2]), 2.5 nM; at Integrin αvβ5 Receptor (setting [3]), 3.4 nM.
With `[N-]=[N+]=NCCOCCOCCOCCOCCOc1ccc([C@H](CC(=O)O)CN2CC[C@@H](CCc3ccc4c(n3)NCCC4)C2)cc1` (single isomer, unassigned) [Compound 20-P1], the IC50 came to 8.1 nM on Integrin αvβ1 Receptor, 3.7 nM on Integrin αvβ6 Receptor (setting [1]), 3.7 nM at Integrin αvβ6 Receptor (setting [2]) and 0.7 nM at Integrin αvβ5 Receptor (setting [3]).
As for `Cc1ccnc(NCCC2CCN(CC(=O)NC(CC(=O)O)c3ccc(-c4ccc(OCCOCCOCCOCCOCCN=[N+]=[N-])c5ccccc45)cc3)C2=O)c1` (single isomer, unassigned) [Compound 5-P2], the IC50 on Integrin αvβ1 Receptor worked out at 333 nM; on Integrin αvβ6 Receptor (setting [1]), 3.9 nM; on Integrin αvβ6 Receptor (setting [2]) it was 3.9 nM; at Integrin αvβ5 Receptor (setting [3]), 142 nM. In addition, at Integrin αvβ6 Receptor, the “specific binding ability to the αvβ6 receptor” value is recorded as “specific binding ability to the αvβ6 receptor”.
Turning to `Cc1ccnc(NCCC2CCN(CC(=O)NC(CC(=O)O)c3ccc(-c4ccc(OCCOCCOCCOCCOCCN=[N+]=[N-])c5ccccc45)cc3)C2=O)c1` (single isomer, unassigned) [Compound 5-P1], the IC50 on Integrin αvβ1 Receptor is 753 nM; at Integrin αvβ6 Receptor (setting [1]), 3.6 nM; at Integrin αvβ6 Receptor (setting [2]), 3.6 nM; on Integrin αvβ5 Receptor (setting [3]) it was 83.4 nM. In addition, the “specific binding ability to the αvβ6 receptor” value on Integrin αvβ6 Receptor is given as “specific binding ability to the αvβ6 receptor”.
As to `Cc1nn(-c2cccc(C(CC(=O)O)CN3CC[C@@H](CCc4ccc5c(n4)NCCC5)C3)c2)c(C)c1OCCOCCOCCOCCOCCN=[N+]=[N-]` (single isomer, unassigned) [Compound 14-P2], the concentration for half-maximal inhibition (IC50) on Integrin αvβ1 Receptor was 10.3 nM; on Integrin αvβ6 Receptor (setting [1]), 3.5 nM; at Integrin αvβ6 Receptor (setting [2]), 3.9 nM; at Integrin αvβ5 Receptor (read-out: IC50 (nM) αvβ5, Table 4, different integrin receptors), 0.7 nM.
